Among the test systems are MDA-MB-435; MDA-MB-231 breast; A549 NSCLC; SF-295 CNS; COLO 205 colon; NCI-H522 lung; MALME-3M melanoma; NCI/ADR-RES ovarian; EKVX NSCLC; TK-10 renal.
Common to all, as to assay: NCI anticancer screen, dose series, 48 h

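Briefly, cells in 96-well plates were exposed to five compound concentrations for 48 h, and endpoints were estimated by linear interpolation. At the GI50, growth is halved. TGI denotes the concentration required for complete inhibition of growth.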 A value given as a limit tells only on which side of the number the result lay.

Regarding `CC1(C)N=C(N)N=C(N)N1c1ccc(OCCCCNC(=O)c2ccc(S(=O)(=O)F)cc2)c(Cl)c1`, the GI50 in the assay with MDA-MB-435 was 4.87 µM; in the assay on MDA-MB-231 breast it was 66.2 µM; with A549 NSCLC it was 4.17 µM; with SF-295 CNS, 51100 nM; in the assay with COLO 205 colon it was 68.4 µM; in the assay with NCI-H522 lung, 10.5 µM. In addition, the GI50 in the assay on MALME-3M melanoma and with NCI/ADR-RES ovarian was above 100 µM in each case. Further, the TGI in the assay with MDA-MB-435, in the assay with MDA-MB-231 breast, in the assay on A549 NSCLC, in the assay with SF-295 CNS, in the assay on COLO 205 colon and in the assay on NCI-H522 lung was above 100 µM throughout. Also, the TGI in the assay with MALME-3M melanoma and in the assay on NCI/ADR-RES ovarian was above 100 µM in each case.
For `CCC1CCC2c3c([nH]c4ccccc34)C3C(=O)N(c4ccc(OC)cc4)C(=O)C3C2C1` (configuration not stated), the TGI in the assay on EKVX NSCLC is above 100 µM; in the assay on MDA-MB-435, above 100 µM; with MDA-MB-231 breast it was above 100 µM; with A549 NSCLC it was 59.7 µM; with SF-295 CNS it was 68.1 µM; in the assay on COLO 205 colon it was above 100 µM. Besides, the TGI was above 100 µM with NCI-H522 lung, above 100 µM in the assay with NCI/ADR-RES ovarian and 85.8 µM with TK-10 renal.
Turning to `COc1cc(CC2CC(c3ccc4c(c3)OCO4)OC2=O)cc(OC)c1OC` (configuration not stated), the TGI with EKVX NSCLC, with MDA-MB-435, in the assay with MDA-MB-231 breast, in the assay on A549 NSCLC, with SF-295 CNS and in the assay on COLO 205 colon was above 100 µM throughout. Besides, the TGI with MALME-3M melanoma, in the assay on NCI/ADR-RES ovarian and with TK-10 renal was above 100 µM throughout.
For `CCC(=O)OC1=CN2C(=NC(c3ccc(N)cc3)=CC2c2cc(OC)c(OC)c(OC)c2)S1` (configuration not stated), the GI50 in the assay on MDA-MB-435 was 2.98 µM; with MDA-MB-231 breast, 4.39 µM; in the assay with A549 NSCLC, 3.22 µM; in the assay on SF-295 CNS it was 3480 nM; in the assay on COLO 205 colon, 3.72 µM; in the assay on NCI-H522 lung, 3.49 µM. Further, the values for the GI50 with MALME-3M melanoma, with NCI/ADR-RES ovarian and in the assay on TK-10 renal were 4 µM, 3.73 µM and 4 µM, respectively. In addition, the TGI stood at 14.1 µM in the assay with MDA-MB-435; 21.3 µM in the assay on MDA-MB-231 breast; 26 µM in the assay on A549 NSCLC; 13.1 µM with SF-295 CNS; 10.7 µM in the assay with COLO 205 colon; 12.6 µM in the assay on NCI-H522 lung. For the same compound, the TGI is 16.3 µM in the assay on MALME-3M melanoma, above 100 µM with NCI/ADR-RES ovarian and 16.1 µM in the assay on TK-10 renal.
With `COc1ccc(S(=O)(=O)n2c3ccccc3n3ncc(-c4nnc(C)o4)c23)cc1`, the GI50 in the assay on EKVX NSCLC is 1.12 µM; in the assay with MDA-MB-435 it was 0.339 µM; in the assay on MDA-MB-231 breast, 1.86 µM; in the assay on A549 NSCLC, 0.768 µM; in the assay with SF-295 CNS, 370 nM; in the assay on COLO 205 colon, 0.376 µM. Moreover, the GI50 in the assay on NCI-H522 lung is 0.42 µM; with NCI/ADR-RES ovarian it was 0.391 µM; with TK-10 renal it was 25.4 µM. The TGI is above 100 µM in the assay on EKVX NSCLC; above 100 µM in the assay on MDA-MB-435; 39.6 µM in the assay with MDA-MB-231 breast; above 100 µM in the assay with A549 NSCLC; 14.4 µM in the assay with SF-295 CNS; 17.1 µM in the assay on COLO 205 colon. The results for the TGI with NCI-H522 lung, with NCI/ADR-RES ovarian and in the assay with TK-10 renal were above 73.6 µM, above 48.1 µM and above 100 µM, respectively.
`Cc1cc(Cl)ccc1NC(=O)NC(C)(C)COC(=O)Nc1cccc(Cl)c1`: the GI50 was 10.9 µM in the assay on MDA-MB-435; 5.45 µM with MDA-MB-231 breast; 5.05 µM in the assay with A549 NSCLC; 945 nM in the assay with SF-295 CNS; 7.18 µM in the assay on COLO 205 colon; 9.6 µM in the assay with MALME-3M melanoma. The values for the GI50 in the assay with NCI/ADR-RES ovarian and in the assay with TK-10 renal were 4.12 µM and 8.86 µM, respectively. Moreover, the TGI is 49.4 µM in the assay with MDA-MB-435; 26 µM in the assay on MDA-MB-231 breast; 66.4 µM in the assay with A549 NSCLC; 8.31 µM in the assay on SF-295 CNS; 20.2 µM in the assay on COLO 205 colon; 50.3 µM in the assay with MALME-3M melanoma. Further, the TGI with NCI/ADR-RES ovarian and in the assay with TK-10 renal was above 100 µM each time.
Consider `O[C@H](CN1CC1)[C@@H](O)CN1CC1`, for which the GI50 with EKVX NSCLC is 15 µM; with MDA-MB-435, 10.5 µM; in the assay on MDA-MB-231 breast it was 24 µM; in the assay with A549 NSCLC, 7.28 µM; with SF-295 CNS it was 382 nM; in the assay on COLO 205 colon it was 12.4 µM. Further, the GI50 in the assay on NCI-H522 lung is 8.2 µM; in the assay with NCI/ADR-RES ovarian, 2.8 µM; in the assay on TK-10 renal it was 21.3 µM. The TGI was 49.6 µM in the assay on EKVX NSCLC; 29.8 µM in the assay on MDA-MB-435; 71.6 µM with MDA-MB-231 breast; above 100 µM in the assay on A549 NSCLC; 1.71 µM in the assay with SF-295 CNS; 25.5 µM in the assay with COLO 205 colon. For the same compound, the TGI in the assay on NCI-H522 lung turned out to be 83.3 µM; in the assay on NCI/ADR-RES ovarian, 53.1 µM; in the assay on TK-10 renal, 77.6 µM.
In the case of `N=C1C(c2nc(-c3ccc(Br)cc3)cs2)=C(O)CN1CC1CCCO1` (configuration not stated), the GI50 with EKVX NSCLC is above 100 µM; with MDA-MB-435, above 100 µM; with MDA-MB-231 breast it was above 100 µM; in the assay with A549 NSCLC, above 100 µM; with SF-295 CNS, above 100000 nM; in the assay with COLO 205 colon, above 100 µM. Also, the GI50 in the assay with MALME-3M melanoma, in the assay on NCI/ADR-RES ovarian and with TK-10 renal was above 100 µM throughout. Also, the TGI in the assay on EKVX NSCLC, in the assay with MDA-MB-435, with MDA-MB-231 breast, with A549 NSCLC, in the assay with SF-295 CNS and with COLO 205 colon was above 100 µM each time. The TGI in the assay with MALME-3M melanoma, in the assay with NCI/ADR-RES ovarian and with TK-10 renal was above 100 µM in each case.
On to `S=C(Nc1ccccc1)N1CCn2c1nsc2=Nc1ccccc1`, for which the GI50 in the assay with EKVX NSCLC is above 100 µM; in the assay with MDA-MB-435, above 100 µM; in the assay on MDA-MB-231 breast, 34.8 µM; with A549 NSCLC, above 100 µM; with SF-295 CNS, 40400 nM; with COLO 205 colon, above 100 µM. The GI50 with NCI-H522 lung was 46.2 µM; with NCI/ADR-RES ovarian it was above 100 µM; in the assay with TK-10 renal, 26.6 µM. For the same compound, the TGI in the assay on EKVX NSCLC, with MDA-MB-435, in the assay on MDA-MB-231 breast, with A549 NSCLC, in the assay on SF-295 CNS and with COLO 205 colon was above 100 µM throughout. Moreover, the figures for the TGI in the assay with NCI-H522 lung, in the assay with NCI/ADR-RES ovarian and in the assay on TK-10 renal were above 100 µM, above 100 µM and 95 µM, respectively.
As to `CC1(C)CC(=O)C(=CN2C(=O)CNC2=S)C(=O)C1`, the TGI in the assay on EKVX NSCLC, in the assay with MDA-MB-435, with MDA-MB-231 breast, in the assay with A549 NSCLC, in the assay with SF-295 CNS and in the assay with COLO 205 colon was above 100 µM in each case. For the same compound, the TGI in the assay on NCI-H522 lung, with NCI/ADR-RES ovarian and in the assay with TK-10 renal was above 100 µM in each case.
On to `Cc1ccc([N+](=O)[O-])cc1NC(=O)C(=O)C1CCC2=C(Sc3ccccc3N2)C1=O` (configuration not stated), for which the TGI with EKVX NSCLC, with MDA-MB-435, in the assay with MDA-MB-231 breast, with A549 NSCLC, in the assay with SF-295 CNS and in the assay with COLO 205 colon was above 100 µM in each case. For the same compound, the TGI in the assay on NCI-H522 lung, in the assay on NCI/ADR-RES ovarian and with TK-10 renal was above 100 µM in each case.
Regarding `Cc1ccc(/C=C2\CN(Cc3cn(CCNc4ccnc5cc(Cl)ccc45)nn3)C/C(=C\c3ccc(C)cc3)C2=O)cc1`, the GI50 in the assay with MDA-MB-435 is 1.66 µM; with MDA-MB-231 breast it was 2.14 µM; in the assay with A549 NSCLC it was 1.8 µM; in the assay with SF-295 CNS it was 1990 nM; in the assay with COLO 205 colon, 1.89 µM; in the assay with NCI-H522 lung, 1.98 µM. The GI50 with MALME-3M melanoma is 1.7 µM; with NCI/ADR-RES ovarian, 2.32 µM; in the assay on TK-10 renal, 1.91 µM. In addition, the TGI is 3.1 µM in the assay on MDA-MB-435; 4.62 µM with MDA-MB-231 breast; 3.73 µM in the assay with A549 NSCLC; 3.73 µM with SF-295 CNS; 3.42 µM in the assay with COLO 205 colon; 3.66 µM in the assay on NCI-H522 lung. In addition, the figures for the TGI in the assay on MALME-3M melanoma, in the assay on NCI/ADR-RES ovarian and in the assay with TK-10 renal were 3.47 µM, 5.14 µM and 3.36 µM, respectively.
For `NC(=S)N/N=C\c1nccc2c(C(F)(F)C(F)(F)C(F)(F)F)cccc12`, the GI50 with MDA-MB-435 was 0.376 µM; in the assay with MDA-MB-231 breast, 0.0561 µM; in the assay on A549 NSCLC, 0.0978 µM; in the assay with SF-295 CNS, 209 nM; in the assay with COLO 205 colon, 0.0327 µM; with NCI-H522 lung, 0.211 µM. The values for the GI50 in the assay on MALME-3M melanoma, in the assay with NCI/ADR-RES ovarian and in the assay with TK-10 renal were 0.189 µM, 0.167 µM and 0.078 µM, respectively. The TGI with MDA-MB-435 was above 31.6 µM; with MDA-MB-231 breast, 3 µM; in the assay with A549 NSCLC, 1.1 µM; with SF-295 CNS, 1.7 µM; in the assay on COLO 205 colon, 1.9 µM; in the assay on NCI-H522 lung, 0.756 µM. For the same compound, the results for the TGI in the assay on MALME-3M melanoma, with NCI/ADR-RES ovarian and in the assay with TK-10 renal were 1.43 µM, 1.65 µM and 2.3 µM, respectively.
On to `Cc1ccc(S(=O)(=O)c2ccsc2N)cc1`, for which the GI50 with MDA-MB-435 was above 100 µM; in the assay on MDA-MB-231 breast it was above 100 µM; in the assay on A549 NSCLC, above 100 µM; in the assay with SF-295 CNS it was above 100000 nM; in the assay on COLO 205 colon, above 100 µM; in the assay on NCI-H522 lung, above 100 µM. Also, the GI50 in the assay on MALME-3M melanoma, in the assay on NCI/ADR-RES ovarian and with TK-10 renal was above 100 µM in each case. In addition, the TGI in the assay with MDA-MB-435, with MDA-MB-231 breast, with A549 NSCLC, with SF-295 CNS, in the assay on COLO 205 colon and with NCI-H522 lung was above 100 µM each time. Also, the TGI in the assay with MALME-3M melanoma, in the assay with NCI/ADR-RES ovarian and in the assay with TK-10 renal was above 100 µM throughout.

For the origin of these results see PubChem BioAssay (NCI).
